{"source": "patent US20170044100A1", "about": "“INHIBITORS OF DRUG-RESISTANT MYCOBACTERIUM TUBERCULOSIS” (THE JOHNS HOPKINS UNIVERSITY, priority 2014, published 2017)", "key": {"[1]": {"test_system": "M. tuberculosis strain H37Rv", "assay": "microbe, parasite or virus in culture", "format": "cell-based, Mycobacterium tuberculosis", "set-up": "MICMABA: unit not given here", "conditions": "for activity in comparison to the 4,6-dimethyl analog (1h): H37Rv MIC relative to 1h"}, "Vero cells": {"test_system": "Vero cells", "assay": "Cytotoxicity assay on Vero cells (alamar blue)", "conditions": "Chlorocebus sabaeus, Vero"}, "M. tuberculosis H37Rv [2]": {"test_system": "M. tuberculosis H37Rv", "format": "in vivo, BALB/c mice"}, "[3]": {"assay": "Cytotoxicity assay on Vero cells (alamar blue)", "conditions": "African green monkey, Vero cells (ATCC CCL-81)"}, "M. tuberculosis H37Rv [4]": {"test_system": "M. tuberculosis H37Rv", "assay": "microbe, parasite or virus in culture", "format": "cell-based, Mycobacterium tuberculosis", "set-up": "MICBD / MBCBD: unit not given here", "conditions": "H37Rv; broth dilution; Table 9"}, "M. tuberculosis H37Rv [5]": {"test_system": "M. tuberculosis H37Rv", "conditions": "100 mg/kg oral gavage"}, "[6]": {"conditions": "Mycobacterium tuberculosis, H37RV"}, "[7]": {"conditions": "Mycobacterium tuberculosis, parental H37Rv strain, read-out: MIC for H37Rv"}}, "note": "Read-outs that look alike come from different tables or passages of the source."}
{"molecule": "COc1ccc2cc(C(=O)NC34CC5CC(CC(C5)C3)C4)[nH]c2c1", "note": "[Compound 30, N-(1-Adamantyl)-6-methoxy-1H-indole-2-carboxamide]", "values": [{"measurement": "MICMABA", "setting": "[1]; H37Rv, MABA, Table 9", "result": 0.25}, {"measurement": "IC50", "setting": "Vero cells; read-out: IC50 Vero Cells, Vero cells, Table 9", "result": 64, "unit": "µg/mL"}]}
{"molecule": "Cc1cc(C)c2cc(C(=O)NC3CCN(C(C)C)CC3)[nH]c2c1", "note": "[Compound 8, N-(1-Isopropyl-4-piperidinyl)-4,6-dimethyl-1H-indole-2-carboxamide]", "values": [{"measurement": "MICMABA", "setting": "[1]; H37Rv, MABA, Table 9", "result": 64}, {"measurement": "MIC", "setting": "[1]; [6]", "result": 204, "unit": "µM"}]}
{"molecule": "NC[C@H]1O[C@H](O[C@H]2[C@H](O)[C@@H](O[C@H]3O[C@H](CO)[C@@H](O)[C@H](N)[C@H]3O)[C@H](N)C[C@@H]2N)[C@H](O)[C@@H](O)[C@@H]1O", "note": "[Kanamycin, reference compound]", "values": [{"measurement": "MIC", "setting": "[1]; Mycobacterium tuberculosis, H37RV, read-out: MIC for H37Rv", "result": 2, "unit": "µg/mL"}]}
{"molecule": "NNC(=O)c1ccncc1", "note": "[Isoniazid, reference compound]", "values": [{"measurement": "Mean lung CFU counts (standard deviation), Day 7", "setting": "M. tuberculosis H37Rv [2]; isoniazid 10 mg/kg oral gavage daily (5 days per week), Day 7", "result": "5.508 (0.124)"}, {"measurement": "Mean lung CFU counts (standard deviation), Day 14", "setting": "M. tuberculosis H37Rv [2]; isoniazid 10 mg/kg oral gavage daily, Day 14", "result": "5.266 (0.089)"}, {"measurement": "Mean lung CFU counts (standard deviation), Day 28", "setting": "M. tuberculosis H37Rv [2]; isoniazid 10 mg/kg oral gavage daily, Day 28", "result": "4.561 (0.088)"}, {"measurement": "MICMABA", "setting": "[1]; H37Rv, MABA, Table 9", "result": 0.04}, {"measurement": "MIC", "setting": "[1]; [6]", "result": 0.29, "unit": "µM"}, {"measurement": "MIC", "setting": "[1]; [7]", "result": 0.04, "unit": "µg/mL"}]}
{"molecule": "Cc1cc(C)c2cc(C(=O)NC34CC5CC(CC(C5)C3)C4)[nH]c2c1", "note": "[Compound 13, N-(1-Adamantyl)-4,6-dimethyl-1H-indole-2-carboxamide]", "values": [{"measurement": "MICMABA", "setting": "[1]; H37Rv, MABA, Table 9", "result": 0.0019}, {"measurement": "MIC", "setting": "[1]; [6]", "result": 0.012, "unit": "µM"}, {"measurement": "IC50 at 72 h", "setting": "[3]", "result": "> 200", "unit": "µM"}, {"measurement": "IC50", "setting": "Vero cells; read-out: IC50 Vero Cells", "result": "> 64", "unit": "µg/mL"}]}
{"molecule": "COc1c(N2C[C@@H]3CCCN[C@@H]3C2)c(F)cc2c(=O)c(C(=O)O)cn(C3CC3)c12", "note": "[Moxifloxacin, reference compound]", "values": [{"measurement": "MIC", "setting": "[1]; [7]", "result": "0.0625 to 0.125", "unit": "µg/mL"}]}
{"molecule": "Capreomycin", "values": [{"measurement": "MIC for H37Rv", "setting": "[1]; parental H37Rv strain", "result": 1, "unit": "µg/mL"}]}
{"molecule": "Cc1cc(C)c2c(C(=O)NC3C4CC5CC(C4)CC3C5)c[nH]c2c1", "note": "(centres unmarked) [Compound 44, N-(2-Adamantyl)-4,6-dimethyl-1H-indole-3-carboxamide]", "values": [{"measurement": "MICMABA", "setting": "[1]; H37Rv, MABA, Table 9", "result": ">64"}]}
{"molecule": "Cc1cc(C)c2cc(C(=O)NC3CCCCC3)n(C)c2c1", "note": "[Compound 18, N-Cyclohexyl-1,4,6-trimethyl-11-1-indole-2-carboxamide]", "values": [{"measurement": "MICBD", "setting": "M. tuberculosis H37Rv [4]", "result": 128}, {"measurement": "MICMABA", "setting": "[1]", "result": 128}, {"measurement": "MIC", "setting": "[1]; [6]", "result": 450, "unit": "µM"}]}
{"molecule": "Cc1cc(C)c2cc(C(=O)N3CCCCC3)[nH]c2c1", "note": "[Compound 17, (4,6-Dimethyl-11-1-indo1-2-yl)(piperidin-1-yl)methanone]", "values": [{"measurement": "MIC", "setting": "[1]", "result": ">499", "unit": "µM"}]}
{"molecule": "Cc1cc(C)c2c(C(=O)NC3CCCCCC3)c[nH]c2c1", "note": "[Compound 41, N-Cycloheptyl-4,6-dimethyl-1H-indole-3-carboxamide]", "values": [{"measurement": "MICMABA", "setting": "[1]; H37Rv, MABA, Table 9", "result": ">64"}]}
{"molecule": "N-(2,3,5 -methyl, 4-dimethyl)-4,6-difluoro-1H-indole-2-carboxamide", "values": [{"measurement": "activity in comparison to the 4,6-dimethyl analog (1h)", "setting": "[1]", "result": "as active as 1h"}, {"measurement": "MICMABA", "setting": "[1]; H37Rv, MABA, Table 9", "result": 0.0039}, {"measurement": "bioavailability in vivo by serum inhibition titration", "setting": "M. tuberculosis H37Rv [5]; Balb/c mice", "result": "bioavailable in vivo"}, {"measurement": "serum inhibition activity compared with isoniazid", "setting": "M. tuberculosis H37Rv [5]; isoniazid positive control", "result": "comparable to that of isoniazid"}]}
{"molecule": "Cc1cc(C)c2c(C(=O)NC34CC5CC(CC(C5)C3)C4)c[nH]c2c1", "note": "[Compound 43, N-(1-Adamantyl)-4,6-dimethyl-1H-indole-3-carboxamide]", "values": [{"measurement": "MICMABA", "setting": "[1]; H37Rv, MABA, Table 9", "result": ">64"}]}
{"molecule": "Cc1cc(C)c2cc(C(=O)NC3CCN(C)CC3)[nH]c2c1", "note": "[Compound 7, N-(1-Methyl-4-piperidinyl)-4,6-dimethyl-1H-indole-2-carboxamide]", "values": [{"measurement": "MICMABA", "setting": "[1]", "result": 128}, {"measurement": "MIC", "setting": "[1]; [6]", "result": 448, "unit": "µM"}]}
{"molecule": "O=C(NC1CCCCCCC1)c1cc2c(F)cc(F)cc2[nH]1", "note": "[Compound 29, N-Cyclooctyl-4,6-difluoro-1H-indole-2-carboxamide]", "values": [{"measurement": "activity in comparison to the 4,6-dimethyl analog (1h)", "setting": "[1]", "result": 8, "unit": "fold"}, {"measurement": "MICMABA", "setting": "[1]; H37Rv, MABA, Table 9", "result": 0.031}]}
{"molecule": "Cc1cc(C)c2c(C(=O)NC3CCCCCCC3)c[nH]c2c1", "note": "[Compound 42, N-Cyclooctyl-4,6-dimethyl-1H-indole-3-carboxamide]", "values": [{"measurement": "MICMABA", "setting": "[1]; H37Rv, MABA, Table 9", "result": ">64"}]}
{"molecule": "O=C(NC1CCCCC1)c1cc2ccccc2[nH]1", "note": "[Compound 26, N-Cyclohexyl-1H-indole-2-carboxamide]", "values": [{"measurement": "MICBD", "setting": "M. tuberculosis H37Rv [4]", "result": ">128"}, {"measurement": "MICMABA", "setting": "[1]; H37Rv, MABA, Table 9", "result": 128}]}
